Where two headings read alike, the source gives them in different places.
What was measured:
HDAC3 = biological target: T1, HDAC3 (Homo sapiens, UniProt O15379); settings: previously reported 4-amino analogues; cited from earlier work
T1 construct: purchased Reaction Biology corporation (contract assay)

HDAC11 = biological target: T2, HDAC11 (Homo sapiens, UniProt Q96DB2); settings: previously reported 4-amino analogues; cited from earlier work
T2 construct: purchased Reaction Biology corporation (contract assay)
T2 sequence (Q96DB2 1-347): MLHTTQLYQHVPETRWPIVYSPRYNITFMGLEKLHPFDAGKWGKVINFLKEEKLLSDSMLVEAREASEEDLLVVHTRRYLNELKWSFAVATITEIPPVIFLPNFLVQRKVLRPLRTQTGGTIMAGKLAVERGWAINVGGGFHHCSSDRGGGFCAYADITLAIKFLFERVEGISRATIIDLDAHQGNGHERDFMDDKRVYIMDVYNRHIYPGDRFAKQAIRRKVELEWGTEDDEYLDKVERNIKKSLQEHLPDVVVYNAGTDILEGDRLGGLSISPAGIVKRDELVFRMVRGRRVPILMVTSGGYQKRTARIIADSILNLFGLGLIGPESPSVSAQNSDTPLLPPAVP

HDAC8 = biological target: T3, HDAC8 (Homo sapiens, UniProt Q9BY41); settings: previously reported 4-amino analogues; cited from earlier work
T3 construct: purchased Reaction Biology corporation (contract assay)
T3 sequence (Q9BY41 1-377): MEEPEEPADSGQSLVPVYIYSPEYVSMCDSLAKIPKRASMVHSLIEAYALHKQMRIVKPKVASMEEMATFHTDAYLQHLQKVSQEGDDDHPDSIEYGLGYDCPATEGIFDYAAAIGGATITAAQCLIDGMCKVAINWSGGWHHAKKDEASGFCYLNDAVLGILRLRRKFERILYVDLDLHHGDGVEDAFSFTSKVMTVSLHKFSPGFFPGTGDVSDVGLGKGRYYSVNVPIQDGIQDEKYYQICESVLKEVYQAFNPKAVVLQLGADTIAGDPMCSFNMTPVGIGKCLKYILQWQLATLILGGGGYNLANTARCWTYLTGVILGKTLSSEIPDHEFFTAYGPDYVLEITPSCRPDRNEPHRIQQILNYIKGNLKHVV

HDAC1 [1] = biological target: T4, HDAC1 (Homo sapiens, UniProt Q13547); settings: previously reported 4-amino analogues; cited from earlier work
T4 construct: purchased Reaction Biology corporation (contract assay)
T4 sequence (Q13547 whole entry): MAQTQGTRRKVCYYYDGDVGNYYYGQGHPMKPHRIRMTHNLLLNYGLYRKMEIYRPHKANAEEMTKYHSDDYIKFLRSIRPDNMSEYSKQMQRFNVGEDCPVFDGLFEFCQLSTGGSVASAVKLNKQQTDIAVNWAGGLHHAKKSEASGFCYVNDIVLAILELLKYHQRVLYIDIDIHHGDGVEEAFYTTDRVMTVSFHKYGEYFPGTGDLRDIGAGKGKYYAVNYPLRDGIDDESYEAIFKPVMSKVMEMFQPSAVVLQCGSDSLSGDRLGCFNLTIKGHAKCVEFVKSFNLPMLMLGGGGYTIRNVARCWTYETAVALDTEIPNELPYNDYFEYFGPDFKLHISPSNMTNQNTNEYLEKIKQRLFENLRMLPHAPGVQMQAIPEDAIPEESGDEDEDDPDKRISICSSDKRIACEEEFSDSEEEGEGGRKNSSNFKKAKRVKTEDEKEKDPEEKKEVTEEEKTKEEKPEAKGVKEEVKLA

[2] = test system: acetylated histone in A549 cells; test: Histone acetylation in A549 cells, immunostaining with high content imaging; format: cell-based, human; settings: 24 h; for Concentration from which histone acetylation was significantly increased: compared to untreated cells
Description: (§1) To confirm the observed activities of the selected test compounds against HDAC6, the acetylation status of tubulin in the human lung cancer cell line A549 was investigated by immunostaining combined with automated high content image analysis (see supplementary material for full details). […] The apparent drop in histone acetylation by both compounds above 10 μM is indicative of a potential cytotoxicity at higher concentrations (data not shown).
(§2) Figure 5 Cell-based assessment of HDAC activity and selectivity. Dose and time-dependency of tubulin and histone acetylation by test compounds. A549 cells were treated with (A,B) different concentrations (0–50 µM) of CF011, KNH019 and tubastatin for 24 h or with (C,D) 1 µM over different time intervals before (A,C) tubulin acetylation or (B,D) histone acetylation were automatically quantified using high content imaging. Data represent the average of four independent experiments with four replicate wells/experiments. The statistical significances of effects compared to the untreated control were analysed using Brown–Forsythe and Welch one-way ANOVA analyses using Graph Pad Prism. The significance was set as * 0.05 > p ≥ 0.01, ** 0.01 > p ≥ 0.002. Error bars represent the Standard Error of Mean (SEM). (E) Representative fluorescence images show tubulin acetylation (yellow), histone acetylation (red) and nuclear counterstain (DAPI, blue) after 24 h of exposure to test compounds. Secondary antibodies were detected using excitation/emission filters for CY3 (excitation: 542/27 nm, emission: 597/45 nm), CY5 (excitation: 632/22 nm, emission: 684/25 nm) and DAPI (excitation: 390/18 nm, emission: 435/48 nm), respectively. […]
(§3) S2.2 Cell Culture, Treatment and Immunostaining:
(§4) A549 cells (ATCC® CCL-185™, In Vitro Technologies Pty. Ltd., Victoria, Australia) were cultured in low glucose Dulbecco’s Modified Eagle Media (DMEM, 1 g/L glucose, 0.584 g/L L-glutamine, 3.7 g/L sodium bicarbonate, 10 % fetal bovine serum) under standard conditions (> 90 % humidity, 37 °C temperature, 5 % CO 2). For experiments, 5,000 cells/ well were seeded in 100 µl serum free DMEM in 384 well plates (µCLEAR®, Greiner) and left to adhere for 24 hours before the treatment. Cells were treated with 100 µl of test compound -containing media for up to 24 hours before cells were fixed with 4 % paraformaldehyde (PFA) solution in PBS (10 minutes at room temperature (RT)) and permeabi lized with 50 µl of 0.5 % Triton X -100 in PBS. Subsequently, cells were blocked in PBST (5% fetal bovine serum, 5% bovine serum albumin, 5% goat serum, 0.1% Tween 20 in PBS) before stained with anti - acetylated tubulin (T7451, Sigma Aldrich; 1:1,000) and an ti-acetylated histone antibody (ab47915, Abcam; 1:1,000) overnight at 4 °C. Subsequently, cells were exposed to secondary antibodies (goat anti-mouse Alexa fluor 594 (Invitrogen; 1:10,000) and goat anti -rabbit Alexa fluor 647 (Invitrogen; 1:10,000) in PBST ) and DAPI solution (Invitrogen; 1:10,000 in PBST) before images were acquired.
(§5) Fluorescence images were acquired (10x magnification, 2 -D format) using the InCell 2200 high content imaging system (V7.3, GE Healthcare life sciences) wi th CY3 (excitation: 542/27 nm, emission: 597/45 nm), CY5 (excitation: 632/22 nm, emission: 684/25 nm) and DAPI (excitation: 390/18 nm, emission:
435/48 nm) filters. […] Data was expressed as % Relative Fluorescence Units (RFU) […]

[3] = test system: acetylated tubulin in A549 cells; test: Tubulin acetylation in A549 cells, immunostaining with high content imaging; format: cell-based, human; settings: 24 h; for Concentration from which tubulin acetylation was significantly increased: compared to untreated cells
Description: as §1, §2, §3, §4, §5
435/48 nm) filters. Two images/well at predefined positions were automatically acquired with 4 replicate wells for each treatment condition/ experiment. At least 3 independent experiments were conducted for each condition. Acquired images were automatically processed using InCarta software (v1.6, GE Healthcare life sciences). All images were manually checked for ar tefacts. Images with less than 30 cells were excluded from the analysis. Excel and GraphPad Prism was used for statistical analysis and graphical representation. Data was expressed as % Relative Fluorescence Units (RFU) […]

HDAC6 = biological target: T5, HDAC6 (Homo sapiens, UniProt Q9UBN7); set-up: method as in PMID 30168823; settings: Figure 2; cited from earlier work
T5 construct: purchased Reaction Biology corporation (contract assay)
T5 sequence (Q9UBN7 1-1215): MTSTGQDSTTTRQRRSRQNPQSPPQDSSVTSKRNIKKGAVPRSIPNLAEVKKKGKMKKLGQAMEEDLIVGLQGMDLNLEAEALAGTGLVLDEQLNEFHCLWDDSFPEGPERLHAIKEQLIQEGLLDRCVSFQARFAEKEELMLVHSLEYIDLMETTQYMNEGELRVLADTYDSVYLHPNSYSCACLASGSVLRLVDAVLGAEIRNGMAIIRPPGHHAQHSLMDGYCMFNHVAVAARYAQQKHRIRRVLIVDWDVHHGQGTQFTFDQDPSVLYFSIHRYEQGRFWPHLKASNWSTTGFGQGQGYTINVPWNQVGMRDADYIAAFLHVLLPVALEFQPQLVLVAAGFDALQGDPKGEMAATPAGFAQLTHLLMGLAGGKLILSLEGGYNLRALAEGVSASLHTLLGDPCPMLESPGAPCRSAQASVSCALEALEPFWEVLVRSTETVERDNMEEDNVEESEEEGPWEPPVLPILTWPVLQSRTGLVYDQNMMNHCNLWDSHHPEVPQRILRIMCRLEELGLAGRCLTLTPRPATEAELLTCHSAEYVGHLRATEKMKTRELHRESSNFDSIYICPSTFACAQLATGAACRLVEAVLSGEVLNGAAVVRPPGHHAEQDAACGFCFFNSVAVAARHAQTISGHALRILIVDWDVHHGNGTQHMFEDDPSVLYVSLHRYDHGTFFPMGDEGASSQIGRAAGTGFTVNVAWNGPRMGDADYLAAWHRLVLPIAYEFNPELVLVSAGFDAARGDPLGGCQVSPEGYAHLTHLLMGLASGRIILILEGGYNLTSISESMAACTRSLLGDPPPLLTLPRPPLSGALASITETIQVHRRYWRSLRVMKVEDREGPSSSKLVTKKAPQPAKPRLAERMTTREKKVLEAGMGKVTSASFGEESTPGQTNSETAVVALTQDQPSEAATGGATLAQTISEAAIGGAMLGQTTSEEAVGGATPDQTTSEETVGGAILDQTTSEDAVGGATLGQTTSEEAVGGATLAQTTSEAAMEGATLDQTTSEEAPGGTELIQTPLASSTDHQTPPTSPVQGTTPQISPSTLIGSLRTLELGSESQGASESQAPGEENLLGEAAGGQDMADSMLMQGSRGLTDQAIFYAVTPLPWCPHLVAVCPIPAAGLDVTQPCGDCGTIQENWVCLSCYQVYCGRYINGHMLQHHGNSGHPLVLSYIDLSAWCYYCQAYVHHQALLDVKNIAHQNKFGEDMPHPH

HDAC1 [4] = biological target: T4, HDAC1; set-up: method as in PMID 30168823; settings: Figure 2; cited from earlier work

T1 sequence (O15379 whole entry): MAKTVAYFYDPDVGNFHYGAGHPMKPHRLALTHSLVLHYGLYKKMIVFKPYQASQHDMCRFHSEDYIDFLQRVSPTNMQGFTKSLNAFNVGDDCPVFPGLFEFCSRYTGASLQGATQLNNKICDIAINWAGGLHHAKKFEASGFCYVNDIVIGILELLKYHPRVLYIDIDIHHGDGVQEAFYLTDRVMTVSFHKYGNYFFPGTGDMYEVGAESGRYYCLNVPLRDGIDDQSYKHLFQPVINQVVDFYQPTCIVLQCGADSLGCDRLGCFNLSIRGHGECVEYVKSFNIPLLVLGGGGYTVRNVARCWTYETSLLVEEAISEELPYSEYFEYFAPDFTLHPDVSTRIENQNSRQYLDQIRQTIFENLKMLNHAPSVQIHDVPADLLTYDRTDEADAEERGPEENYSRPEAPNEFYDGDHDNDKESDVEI
T1 sequence (Q9Y618 395-489 partner limits assumed): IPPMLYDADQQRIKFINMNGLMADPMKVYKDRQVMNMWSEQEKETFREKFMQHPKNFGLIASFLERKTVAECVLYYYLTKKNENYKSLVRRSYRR

Row | Structure (SMILES) | IC50 (HDAC3) | Selectivity factor (SF) HDAC3 against HDAC6 (HDAC3) | Selectivity factor (SF) HDAC11 against HDAC6 (HDAC11) | Selectivity factor (SF) HDAC8 against HDAC6 (HDAC8) | Selectivity factor (SF) = HDAC1 IC50/HDAC6 IC50 (HDAC1 [1]) | Histone acetylation in representative immunostaining images ([2]; 10 µM) | Concentration from which histone acetylation was significantly increased [2] | Increase of tubulin acetylation compared to untreated cells (up to) ([3]; 0-50 µM, dose-dependent) | Tubulin acetylation in representative immunostaining images ([3]; 10 µM) | Concentration from which tubulin acetylation was significantly increased [3] | IC50 (HDAC6) | IC50 (HDAC1 [4]) | Selectivity factor (SF) = HDAC1 IC50/HDAC6 IC50 (HDAC1 [4])
1 | CCCNc1ccc2c3c(cccc13)C(=O)N(CCCCCC(=O)NO)C2=O [CF010] | 110 ± 4 nM | 23 | 16 | 317 | 123 |  |  |  |  |  |  |  | 
2 | O=C(CCCCCN1C(=O)c2cccc3c(NCc4ccccc4)ccc(c23)C1=O)NO [CF011] | 360 ± 0.7 nM | 103 | 43 | 703 | 566 | strongly induce | 10^−6 mM | ~1.5 fold | strongly induce | 10^−9 mM |  |  | 
3 | COc1cc2c3c(cccc3c1)C(=O)N(Cc1ccc(C(=O)NO)cc1)C2=O [Compound 3] |  |  |  |  |  |  |  |  |  |  | 0.08 nM | 33 nM | 412
4 | CN1CCc2c(c3ccccc3n2Cc2ccc(C(=O)NO)cc2)C1 [tubastatin] |  |  |  |  |  |  | 10^−3 mM |  |  | 10^−3 mM |  |  | 
